Data published in US9527851B2, “Pyrrole six-membered heteroaryl ring derivative, preparation method thereof, and medicinal uses thereof” (Jiangsu Hengrui Medicine Co., Ltd., priority 2011, dated 2016).

Columns and labels:
[1] = Pharmacokinetics assay in rats, intragastric administration, plasma by LC/MS/MS; type: in vivo, Sprague-Dawley (SD) rats; conditions: both sexes, Sprague-Dawley, rat, plasma, po, SD rats, 10 mg/kg
Description: Rats were used as test animals. […] The pharmacokinetic behavior of the compounds of the present invention was studied and evaluated in rats.
56 Healthy adult Sprague-Dawley (SD) rats, half male and half female, purchased from SINO-BRITSH SIPPR/BK LAB.
The appropriate amount of test compounds were weighed and mixed with 1.0 mL of dimethyl sulfoxide to prepare a 1.0 mg/mL suspension.
After an overnight fast, SD rats were administered intragastrically at a dose of 10.0 mg/kg and an administration volume of 10 mL/kg.
The plasma samples were stored at −20° C. The rats were fed 2 hours after administration.
Content determination of the test compounds in rat plasma after intragastrically administering at different concentrations: 50 μL of rat plasmas taken at various time points after administration were mixed with 50 μL of internal standard solution and 100 μL of methanol and mixed for 3 minutes by a vortexer. The mixture was centrifuged for 10 minutes at 13,500 rpm. 10 μL of the supernatant was taken from the plasma sample and analyzed by LC-MS/MS.
Pharmacokinetic Parameters of the compounds of the present invention were shown as follows: […]

JAK1 kinase = JAK1 kinase (Homo sapiens (Human), UniProt P23458); experiment: Assay for inhibiting JAK1 kinase (in vitro kinase assay, HRP anti-phosphotyrosine antibody/TMB absorbance); type: biochemical; conditions: 20 μM ATP, 50 minutes at room temperature; read-out: IC50 (JAK1/Bio)
Description: In vitro activity of compounds of the present invention for inhibiting JAK1 kinase was determined by the following method.
IC50 values of test compounds was calculated from the data of the test compounds in inhibiting the activity of JAK1 kinase at different concentrations.

JAK2 kinase = JAK2 kinase (Homo sapiens (Human), UniProt O60674); experiment: Assay for inhibiting JAK2 kinase (in vitro kinase assay, HRP anti-phosphotyrosine antibody/TMB absorbance); type: biochemical; conditions: 20 μM ATP, 50 minutes at room temperature; read-out: IC50 (JAK2/Bio)
Description: In vitro activity of compounds of the present invention for inhibiting JAK2 kinase was determined by the following method.

Chain of JAK2 kinase (O60674 whole entry): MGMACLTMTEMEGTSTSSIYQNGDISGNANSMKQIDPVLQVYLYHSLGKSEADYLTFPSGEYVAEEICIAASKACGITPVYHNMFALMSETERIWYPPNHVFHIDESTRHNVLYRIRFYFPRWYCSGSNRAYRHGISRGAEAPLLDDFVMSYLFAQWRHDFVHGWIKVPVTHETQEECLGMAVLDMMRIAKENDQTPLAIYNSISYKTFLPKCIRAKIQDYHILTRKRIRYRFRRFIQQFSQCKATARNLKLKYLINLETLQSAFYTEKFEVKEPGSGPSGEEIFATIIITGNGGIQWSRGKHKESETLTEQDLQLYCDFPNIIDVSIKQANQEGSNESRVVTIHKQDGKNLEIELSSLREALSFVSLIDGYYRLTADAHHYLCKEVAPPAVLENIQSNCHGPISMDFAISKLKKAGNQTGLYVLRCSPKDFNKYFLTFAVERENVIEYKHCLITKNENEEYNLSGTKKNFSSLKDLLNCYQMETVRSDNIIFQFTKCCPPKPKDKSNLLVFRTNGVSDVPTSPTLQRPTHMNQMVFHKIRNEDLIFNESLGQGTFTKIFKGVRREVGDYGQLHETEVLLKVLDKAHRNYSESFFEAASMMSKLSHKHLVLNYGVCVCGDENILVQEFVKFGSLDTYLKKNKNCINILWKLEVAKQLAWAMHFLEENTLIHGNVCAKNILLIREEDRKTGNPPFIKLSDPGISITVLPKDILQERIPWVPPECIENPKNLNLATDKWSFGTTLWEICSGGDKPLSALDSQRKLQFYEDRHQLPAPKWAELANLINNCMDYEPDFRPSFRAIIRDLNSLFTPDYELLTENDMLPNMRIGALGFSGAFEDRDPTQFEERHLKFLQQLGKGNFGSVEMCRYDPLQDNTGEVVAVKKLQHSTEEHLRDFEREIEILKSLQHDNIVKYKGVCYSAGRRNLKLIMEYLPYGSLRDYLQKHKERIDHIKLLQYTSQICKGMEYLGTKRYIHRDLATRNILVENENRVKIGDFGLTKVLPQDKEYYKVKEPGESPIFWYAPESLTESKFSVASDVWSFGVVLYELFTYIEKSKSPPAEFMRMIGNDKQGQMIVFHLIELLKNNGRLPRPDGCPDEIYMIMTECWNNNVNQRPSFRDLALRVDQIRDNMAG
Chain of JAK1 kinase (P23458 whole entry): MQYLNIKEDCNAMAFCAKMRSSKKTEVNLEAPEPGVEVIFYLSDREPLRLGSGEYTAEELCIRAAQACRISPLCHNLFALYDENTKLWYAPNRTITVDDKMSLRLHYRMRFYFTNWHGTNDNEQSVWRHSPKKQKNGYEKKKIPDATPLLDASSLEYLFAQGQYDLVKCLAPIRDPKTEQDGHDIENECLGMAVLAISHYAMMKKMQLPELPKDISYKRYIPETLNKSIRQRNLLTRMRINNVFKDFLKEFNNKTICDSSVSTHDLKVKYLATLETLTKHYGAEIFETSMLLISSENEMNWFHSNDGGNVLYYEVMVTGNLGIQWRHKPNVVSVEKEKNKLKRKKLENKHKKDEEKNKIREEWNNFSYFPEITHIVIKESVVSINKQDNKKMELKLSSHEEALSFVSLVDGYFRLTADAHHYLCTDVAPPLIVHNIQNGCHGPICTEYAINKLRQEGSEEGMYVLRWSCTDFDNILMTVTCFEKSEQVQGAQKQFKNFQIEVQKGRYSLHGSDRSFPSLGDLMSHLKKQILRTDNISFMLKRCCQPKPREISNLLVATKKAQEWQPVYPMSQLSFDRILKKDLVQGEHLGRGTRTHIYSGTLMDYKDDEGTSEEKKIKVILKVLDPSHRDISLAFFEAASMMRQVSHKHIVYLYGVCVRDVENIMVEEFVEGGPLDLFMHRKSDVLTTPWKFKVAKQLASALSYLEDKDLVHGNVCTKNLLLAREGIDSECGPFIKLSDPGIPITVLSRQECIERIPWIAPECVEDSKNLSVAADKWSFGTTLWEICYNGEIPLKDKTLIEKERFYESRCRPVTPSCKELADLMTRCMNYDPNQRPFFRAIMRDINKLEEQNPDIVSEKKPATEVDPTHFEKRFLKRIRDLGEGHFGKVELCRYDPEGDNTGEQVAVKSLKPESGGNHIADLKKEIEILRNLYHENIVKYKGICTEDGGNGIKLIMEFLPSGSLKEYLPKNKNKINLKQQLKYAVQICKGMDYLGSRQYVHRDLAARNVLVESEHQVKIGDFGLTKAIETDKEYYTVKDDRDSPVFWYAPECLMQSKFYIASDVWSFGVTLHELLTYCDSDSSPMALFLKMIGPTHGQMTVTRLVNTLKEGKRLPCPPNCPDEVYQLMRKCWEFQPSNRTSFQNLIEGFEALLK

Row | Compound | IC50 (JAK1 kinase) [nM] | IC50 (JAK2 kinase) [nM] | also measured
1 | C[C@H](O)C(=O)N1C[C@H]2C[C@H](N(C)c3ncnc4[nH]ccc34)C[C@H]2C1 [Example 17, (S)-2-Hydroxy-1-((3aR,5R,6aS)-5-(methyl(7H-pyrrolo[2,3-d]pyrimidin-4-yl)amino)hexahydrocyclopenta[c]pyrrol-2(1H)-yl)propan-1-one] | 0.2 | – | Vd/F ([1]; read-out: Apparent Distribution Volume Vz/F): 6.2 ± 1.69 L/kg; AUC ([1]; read-out: Area Under Curve AUC): 4760 ± 1680 ng·h/mL; CL/F ([1]; read-out: Clearance CL/F): 38.7 ± 13.7 mL/min/kg; half-life ([1]; read-out: Half-Life t½ (converted)): 2.03 ± 0.82 h; Cmax ([1]; read-out: Plasma Conc. Cmax): 1480 ± 177 ng/mL
2 | COC(=O)CN1C[C@H]2C[C@H](N(C)c3ncnc4[nH]ccc34)C[C@H]2C1 [Example 24, methyl 2-((3aR,5S,6aS)-5-(methyl(7H-pyrrolo[2,3-d]pyrimidin-4-yl)amino)hexahydrocyclopenta[c]pyrrol-2(1H)-yl)acetate] | 13 | 77 | –
3 | COC(=O)N1CC[C@H]2CC(N(C)c3ncnc4[nH]ccc34)C[C@H]2C1 (stereo partly drawn) [Example 36, (4aS,7aR)-Methyl 6-(methyl(7H-pyrrolo[2,3-d]pyrimidin-4-yl)amino) hexahydro-1H-cyclopenta[c]pyridine-2(3H)-carboxylate] | 25 | 75 | –
4 | CN(c1ncnc2[nH]ccc12)C1C[C@@H]2CCN(C(=O)CO)C[C@@H]2C1 (stereo partly drawn) [Example 37, 2-Hydroxy-1-((4aS,7aR)-6-(methyl(7H-pyrrolo[2,3-d]pyrimidin-4-yl)amino)hexahydro-1H-cyclopenta[c]pyridin-2(3H,4H,4aH,5H,6H,7H,7aH)-yl)ethanone] | 50 | 72 | –
5 | COc1nsc(NC(=O)N2CC[C@H]3CC(N(C)c4ncnc5[nH]ccc45)C[C@H]3C2)n1 (stereo partly drawn) [Example 38, (4aS,7aR)—N-(3-Methoxy-1,2,4-thiadiazol-5-yl)-6-(methyl(7H-pyrrolo[2,3-d]pyrimidin-4-yl)amino)hexahydro-1H-cyclopenta[c]pyridine-2(3H)-carboxamide] | – | 7 | –
6 | CN(c1ncnc2[nH]ccc12)C1C[C@@H]2CCN(C(=O)CC#N)C[C@@H]2C1 (stereo partly drawn) [Example 39, 3-((4aS,7aR)-6-(Methyl(7H-pyrrolo[2,3-d]pyrimidin-4-yl)amino)hexahydro-1H-cyclopenta[c]pyridin-2(3H,4H,4aH,5H,6H,7H,7aH)-yl)-3-oxopropanenitrile] | 34 | 113 | –
7 | Cc1noc(N2C[C@H]3C[C@H](N(C)c4ncnc5[nH]ccc45)C[C@H]3C2)n1 [Example 61, N-methyl-N-((3aR,5S,6aS)-2-(3-methyl-1,2,4-oxadiazol-5-yl)octahydrocyclopenta[c]pyrrol-5-yl)-7H-pyrrolo[2,3-d]pyrimidin-4-amine] | 128 | 25 | –
8 | Cc1nsc(N2C[C@H]3C[C@H](N(C)c4ncnc5[nH]ccc45)C[C@H]3C2)n1 [Example 65, N-methyl-N-((3aR,5S,6aS)-2-(3-methyl-1,2,4-thiadiazol-5-yl)octahydrocyclopenta[c]pyrrol-5-yl)-7H-pyrrolo[2,3-d]pyrimidin-4-amine] | – | 179 | –
9 | CN(c1ncnc2[nH]ccc12)[C@@H]1C[C@@H]2CN(CCC#N)C[C@@H]2C1 [Example 68, 3-((3aR,5R,6aS)-5-(methyl(7H-pyrrolo[2,3-d]pyrimidin-4-yl)amino)hexahydrocyclopenta[c]pyrrol-2(1H)-yl)propanenitrile] | 17 | 18 | –
10 | CN(c1ncnc2[nH]ccc12)[C@@H]1C[C@@H]2CN(C(=O)Nc3nncs3)C[C@@H]2C1 [Example 73, (3aR,5R,6aS)-5-(methyl(7H-pyrrolo[2,3-d]pyrimidin-4-yl)amino)-N-(1,3,4-thiadiazol-2-yl)hexahydrocyclopenta[c]pyrrole-2(1H)-carboxamide] | 75 | 47 | –
11 | COc1nsc(NC(=O)N2C[C@H]3C[C@@H](N(C)c4ncnc5[nH]ccc45)C[C@H]3C2)n1 [Example 74, (3aR,5R,6aS)-N-(3-methoxy-1,2,4-thiadiazol-5-yl)-5-(methyl(7H-pyrrolo[2,3-d]pyrimidin-4-yl)amino)hexahydrocyclopenta[c]pyrrole-2(1H)-carboxamide] | 4 | 56 | –
12 | CN(c1ncnc2[nH]ccc12)[C@@H]1C[C@@H]2CN(C(=O)CCC#N)C[C@@H]2C1 [Example 75, 4-((3aR,5R,6aS)-5-(methyl(7H-pyrrolo[2,3-d]pyrimidin-4-yl)amino)hexahydrocyclopenta[c]pyrrol-2(1H)-yl)-4-oxobutanenitrile] | 46 | 156 | –
13 | CN(c1ncnc2[nH]ccc12)[C@H]1C[C@@H]2CN(C(=O)Nc3nncs3)C[C@@H]2C1 [Example 86, (3aR,5S,6aS)-5-(methyl(7H-pyrrolo[2,3-d]pyrimidin-4-yl)amino)-N-(1,3,4-thiadiazol-2-yl)hexahydrocyclopenta[c]pyrrole-2(1H)-carboxamide] | 10 | 52 | –
14 | CN(c1ncnc2[nH]ccc12)[C@H]1C[C@@H]2CN(C(=O)[C@H](O)CO)C[C@@H]2C1 [Example 92, (R)-2,3-dihydroxy-1-((3aR,5S,6aS)-5-(methyl(7H-pyrrolo[2,3-d]pyrimidin-4-yl)amino)hexahydrocyclopenta[c]pyrrol-2(1H)-yl)propan-1-one] | 131 | 203 | –
15 | COc1cncc(NC(=O)N2C[C@H]3C[C@H](N(C)c4ncnc5[nH]ccc45)C[C@H]3C2)c1 [Example 109, (3aR,5S,6aS)-N-(5-methoxypyridin-3-yl)-5-(methyl(7H-pyrrolo[2,3-d]pyrimidin-4-yl)amino)hexahydrocyclopenta[c]pyrrole-2(1H)-carboxamide] | 15 | – | –
16 | COc1nsc(NC(=O)N2C[C@H]3C[C@H](N(C)c4ccnc5[nH]ccc45)C[C@H]3C2)n1 [Example 113, (3aR,5S,6aS)-N-(3-methoxy-1,2,4-thiadiazol-5-yl)-5-(methyl(1H-pyrrolo[2,3-b]pyridin-4-yl)amino)hexahydrocyclopenta[c]pyrrole-2(1H)-carboxamide] | 23 | 178 | –
17 | Cc1cnc(NC(=O)N2C[C@H]3C[C@H](N(C)c4ncnc5[nH]ccc45)C[C@H]3C2)s1 [Example 117, (3aR,5S,6aS)-5-(methyl(7H-pyrrolo[2,3-d]pyrimidin-4-yl)amino)-N-(5-methylthiazol-2-yl)hexahydrocyclopenta[c]pyrrole-2(1H)-carboxamide] | 95 | – | –
18 | Cc1cc(NC(=O)N2C[C@H]3C[C@H](N(C)c4ncnc5[nH]ccc45)C[C@H]3C2)sn1 [Example 119, (3aR,5S,6aS)-5-(methyl(7H-pyrrolo[2,3-d]pyrimidin-4-yl)amino)-N-(3-methylisothiazol-5-yl)hexahydrocyclopenta[c]pyrrole-2(1H)-carboxamide] | 48 | – | –
19 | Cc1ncc(NC(=O)N2C[C@H]3C[C@H](N(C)c4ncnc5[nH]ccc45)C[C@H]3C2)s1 [Example 124, (3aR,5S,6aS)-5-(methyl(7H-pyrrolo[2,3-d]pyrimidin-4-yl)amino)-N-(2-methylthiazol-5-yl)hexahydrocyclopenta[c]pyrrole-2(1H)-carboxamide] | 119 | – | –
20 | COC(=O)CN1C[C@@H]2[C@H](C1)[C@H]2CN(C)c1ncnc2[nH]ccc12 [Example 134, methyl 2-((1R,5S,6R)-6-((methyl(7H-pyrrolo[2,3-d]pyrimidin-4-yl)amino)methyl)-3-azabicyclo[3.1.0]hexan-3-yl)acetate] | – | 60 | –
21 | CN(C[C@H]1[C@@H]2CN(C(=O)C3CC3)C[C@@H]21)c1ncnc2[nH]ccc12 [Example 135, cyclopropyl((1R,5S,6S)-6-((methyl(7H-pyrrolo[2,3-d]pyrimidin-4-yl)amino)methyl)-3-azabicyclo[3.1.0]hexan-3-yl)methanone] | – | 2 | –
22 | COc1nnc(NC(=O)N2C[C@H]3C[C@H](N(C)c4ncnc5[nH]ccc45)C[C@H]3C2)s1 [Example 155, (3aR,5S,6aS)-N-(5-methoxy-1,3,4-thiadiazol-2-yl)-5-(methyl(7H-pyrrolo[2,3-d]pyrimidin-4-yl)amino)hexahydrocyclopenta[c]pyrrole-2(1H)-carboxamide] | 4 | 41 | –
23 | CN(c1ncnc2[nH]ccc12)[C@H]1C[C@@H]2CN(C(=O)Nc3nc(O)ns3)C[C@@H]2C1 [Example 156, (3aR,5S,6aS)-N-(3-hydroxy-1,2,4-thiadiazol-5-yl)-5-(methyl(7H-pyrrolo[2,3-d]pyrimidin-4-yl)amino)hexahydrocyclopenta[c]pyrrole-2(1H)-carboxamide] | 171 | – | –
